The results in this text go back to patent publication US7064202B1 (University of Kentucky Research Foundation, priority 2003, dated 2006).

Data set [1] in a line: Stability of free and core-loaded liposomal prodrug in whole blood.
The format of data set [2] is in vitro ADME, human. The conditions noted are these: for prodrug decomposition: PBS pH 7.4, human plasma and blood, RP-HPLC.
A short description of data set [3]: RP-HPLC stability (decomposition) of 20-OR ester prodrugs in PBS pH 7.4. The data set is classed as physicochemical. The source says: CPT glycinate fragmentation pattern [m/z(%)] was: 406 (25%), 331 (100%), 303 (30%); CPT ortho lactone fragmentation pattern was: 406 (100%), 388 (40%), 303 (20%). […] HPLC data for each analog studied was consistent with the generation of the novel decomposition products, along with the lactone and carboxylate forms of the parent drug. […] N-methyl CPT glycinate fragmentation pattern [m/z(%)] was: 420 (86%), 331 (100%), 303 (30%); CPT N-methyl ortho lactone fragmentation pattern was: 420 (100%), 402 (50%), 303 (37%). As in the case for the camptothecin glycinate ester, the novel degradation products were generated from the proposed lactam intermediate. Further evidence for proposed degradation products 3 and 4 includes: (1) Glycine carbonyl ^13C isotopic labeling NMR experiment in PBS showing that this carbon exists as a tetrahedral carbon as in 3. (2) Glycine ^15N isotopic labeling NMR experiments showing that 3 and 4 have amide bonds.

As to DB-67 4-aminobutanoate ester, the “decomposition of free prodrug” value in data set [1] is reported as “extensive”.
Take `CCc1c2c(nc3ccc(O)cc13)-c1cc3c(c(=O)n1C2)COC(=O)C3(CC)OC(=O)CN` (stereo not drawn) [SN-38 glycinate ester]: in data set [2], the prodrug decomposition result is “extensive chemical (i.e. non-enzymatic) decomposition”.
Regarding `CCC1(OC(=O)CCCN)C(=O)OCc2c1cc1n(c2=O)Cc2cc3ccccc3nc2-1` (stereo not drawn) [R=COCH2CH2CH2NH2, camptothecin 4-aminobutanoate ester], the half-life of decomposition in data set [3] (buffer, pH 7.4) amounted to 36.7 h.
On to `CC[C@@]1(OC(C)=O)C(=O)OCc2c1cc1n(c2=O)Cc2cc3ccccc3nc2-1` [camptothecin-20(S)-acetate, reference compound], for which the stability / hydrolysis result in data set [2] (pH 7.4) is recorded as “excellent stability”.
In the case of `CCC1(OC(=O)CN)C(=O)OCc2c1cc1n(c2=O)Cc2cc3ccccc3nc2-1` [camptothecin-20(S)-glycinate 1, camptothecin-20(S)-glycinate], in data set [3] (1 μM, PBS (pH 7.4), 37° C., within 3 hours), the decomposition is given as ~90%. The prodrug decomposition entry in data set [2] is on record as “extensive chemical (i.e. non-enzymatic) decomposition”.
